Values quoted from earlier work as cited in patent US20030149013A1, “Methods of treating bacterial infections in dogs and cats” (priority 2001, published 2003).
Like-named read-outs stand apart in the source and are kept apart here.

Tests used:
[1] = dog

| Structure (SMILES) | Rat t1/2 (IM (intramuscular)) | Canine t1/2 ([1]; IM (intramuscular)) | Rat t1/2 (PO (per os)) | Canine t1/2 ([1]; PO (per os)) |
| --- | --- | --- | --- | --- |
| O=C(Cc1cccs1)N[C@@H]1C(=O)N2C(C(=O)[O-])=C(C[n+]3ccccc3)CS[C@H]12 [Cephalordine] | 0.5 (IM) h | 0.97 (IM) h | – | – |
| CC1=C(C(=O)O)N2C(=O)[C@@H](NC(=O)[C@H](N)C3=CCC=CC3)[C@H]2SC1 [Cephadrine] | – | – | 0.82 (PO) h | 3.64 (P0) h |
